According to patent US9416103B2, “Use of the aminoalkylindole JWH-073-M4 and related compounds as neutral CB1 receptor antagonists for the treatment of alcoholism, drug abuse, obesity, and obesity-related diseases” (The Board of Trustees of the University of Arkansas, priority 2012, dated 2016):
Like-named read-outs stand apart in the source and are kept apart here. Marks after values point to notes of the source that are not given here.

Key:
[1] = molecular target: T1, CB1Rs (Mus musculus (Mouse), UniProt P47746); test: [35S]GTPγS binding assay (G-protein activation) in mouse brain homogenates; format: biochemical
Procedure: (§1) Mouse brain homogenates for in vitro assays were prepared as previously described. Briefly, whole brains were harvested from B6SJL mice, snap-frozen in liquid nitrogen and stored at −80° C. On the day membrane homogenates were to be prepared, brains were thawed on ice, then pooled in a 40 mL Dounce glass homogenizer and suspended in 5 volumes of ice cold homogenization buffer (50 mM HEPES, pH 7.4, 3 mM MgCl2, and 1 mM EGTA). Brains were then subjected to 10 complete strokes with an A pestle, followed by centrifugation at 40,000×g for 10 minutes at +4° C. Resulting supernatants were discarded, and the pellet was resuspended, homogenized and centrifuged similarly twice more, with supernatants being discarded. For the final resuspension and homogenization with a B pestle, ice-cold 50 mM HEPES was used in place of homogenization buffer, and homogenates were aliquoted and stored at −80° C. Protein concentrations of homogenates were determined using the BCA™ Protein Assay (Thermo Scientific, Rockford, Ill.).
[^35S]GTPγS binding was performed as previously described. Briefly, 25 μg of mouse brain homogenates were incubated for 30 minutes at 30° C. with 0.1 nM [^35S]GTPγS, 10 μM GDP, and either cannabinoid+/−antagonist, 10 μM unlabeled GTPγS (non-specific binding) or vehicle (total binding), in triplicate, in a volume of 1 mL of buffer containing 20 mM HEPES, 10 mM MgCl2, 100 mM NaCl, 20 units/L adenosine deaminase, 0.05% BSA and the appropriate DMSO (0.1%) and/or ethanol (<0.2%) vehicle. Assay buffer containing 100 mM KCl, instead of 100 mM NaCl, was used to increase basal G-protein activity in experiments examining inverse agonism. Reactions were terminated by quick vacuum filtration through Whatman GF/B glass fiber filters, followed by five washes with ice-cold buffer (20 mM HEPES, 0.05% BSA). Filters were immediately placed into 7 mL scintillation vials to which 4 mL of ScintiVerse™ BD Cocktail scintillation fluid was added. Bound radioactivity was determined after overnight incubation at room temperature and shaking by liquid scintillation spectrophotometry with an efficiency of 93% (Tri Carb 2100 TR Liquid Scintillation Analyzer, Packard Instrument Company, Meriden, Conn.). Specific binding is expressed as picomoles of [^35S]GTPγS bound per mg of protein.
(§2) Curve fitting and statistical analyses for in vitro experiments were performed using GraphPad Prism™ version 5.0b (GraphPad Software Inc., San Diego, Calif.). The Cheng-Prusoff equation [45] was used to convert the experimental IC50 values obtained from competition receptor binding experiments to Ki values, a quantitative measure of receptor affinity. Non-linear regression for one-site competition was used to determine the IC50 for competition receptor binding. Curve fitting of concentration-effect curves via non-linear regression was also employed to determine the EC50 (a measure of potency) and Emax (a measure of efficacy) for [^35S]GTPγS concentration-effects experiments. […] Data are expressed as mean±SEM. The Student's t-test was used to determine statistical significance (P<0.05) between two groups, while a one-way ANOVA, followed by Tukey's Multiple Comparison post-hoc test, was used to determine statistical significance (P<0.05) between three or more groups.

[2] = molecular target: T1, CB1Rs; conditions: mouse brain homogenates; values previously reported [39]; read-out: [3H]CP binding Ki; cited from earlier work
[3] = molecular target: CB1Rs endogenously expressed in Neuro2A cells (Mus musculus (Mouse), UniProt P47746); test: Adenylyl cyclase (AC) inhibition via CB1Rs endogenously expressed in Neuro2A cells; format: cell-based; conditions: for antagonism of AC-inhibition produced by the CB1R full agonist JWH-073: 1 μM concentration; for inhibition at 10 µM: N2a
[4] = tested on: mice; test: Oral EtOH self administration, 2-bottle choice procedure; conditions: daily treatment 10 mg/kg
Excerpt: These assays are important models for the study of alcoholism because they model several aspects of this condition including voluntary EtOH drinking (SA), conditioned EtOH reward (CPP), abstinence and relapse, which represent extinction and reinstatement of CPP, respectively. Effects of TV-5-249 on voluntary 10% EtOH drinking were studied using a 2-bottle choice procedure described by Keane and coworkers as wells as by Cunningham and coworkers. […] After 5 such observations, which represents a two week washout period, daily treatments with 10 mg/kg TV-5-249 were initiated. […] The last treatment was an everyday injection of vehicle, which is 8% Tween/92% sterile water solution and it represents the solution in which both drugs were dissolved in prior to injections.

[5] = tested on: mice; test: Alcohol conditioned place preference (CPP); format: in vivo, mouse; conditions: 10 mg/kg given 1 hour before EtOH pairings
Procedure: Alcohol conditioned place preference assay was done with compounds TV-6-41 and rimonabant. This assay tests the effects of these compounds on conditioned rewarding effects of EtOH. Training of mice involved 4 daily injections of […] EtOH paired with location to one of two chambers (four pairings) after which an increase in time spent in the EtOH-paired chamber was observed, and this points to the development of conditioned place preference (FIG. 24, ‘Pre” bar vs. “Post” bar). […] With the CPP training underway, mice were exposed to succeeding conditioning trials either with 10 mg/kg TV-6-41 or […] 1 hour before EtOH pairings. […] During these studies it was observed that 4 pairings of […] EtOH elicited a CPP of about 400 sec (FIG. 25, “No inj” bar).

[6] = molecular target: T2, hCB2Rs (Homo sapiens (Human), UniProt P34972); test: Competition receptor binding with [3H]CP-55,940 in CHO-hCB2 cell homogenates; conditions: Table 3; read-out: hCB2R Ki
Procedure: (§3) Competition receptor binding was performed as previously described. […] Reactions were terminated by rapid vacuum filtration through Whatman GF/B glass fiber filters, followed by five washes with ice-cold buffer (50 mM Tris, 0.05% BSA). Filters were immediately placed into 7 mL scintillation vials to which 4 mL of ScintiVerse™ BD Cocktail scintillation fluid (Fisher Scientific, Fair Lawn, N.J.) was added. Bound radioactivity was determined after overnight incubation at room temperature and shaking, by liquid scintillation spectrophotometry with an efficiency of 44% (Tri Carb 2100 TR Liquid Scintillation Analyzer, Packard Instrument Company, Meriden, Conn.). Specific binding is expressed as total binding minus non-specific binding, and is graphed for each data point as a percentage of specific binding occurring in the absence of any competitor.
(§4) The prepared analogues were subjected to in vitro pharmacological testing, which included receptor binding and functional assays at both cannabinoid receptors. Initial receptor binding screens at both CB1Rs and CB2Rs were conducted for the analogues prepared.

[7] = tested on: mice; test: Thermoregulation assay, antagonism of JWH-073-induced hypothermia; format: in vivo, mouse; conditions: 30 minute pretreatment before JWH-073 10 mg/kg
Excerpt: Our hypothesis is that a dual activity CB1R antagonist/CB2R agonist will reduce the reinforcing effects of EtOH as well as reduce the conditioned rewarding effects of ethanol in mice. The compounds selected will firstly be put through a thermoregulation assay as a screen for potential cannabinoid receptor activity. Thermoregulation will be used as a screen because of the well-established hypothermic effects seen with the use of cannabinoid ligands. This assay was done using glass radiotelemetry probes that were surgically implanted in each mouse, which monitor core temperature in response to drug administration. […] This screen does indeed confirm the in vivo cannabinoid activity of TV-5-249 and TV-6-41 and it also illustrates the evident antagonist effects against agonist induced hypothermia.

[8] = tested on: CHO-WT cells; test: AC-inhibition assay in CHO-WT cells not transfected with CB2Rs; format: cell-based, Chinese hamster
Procedure: To examine if the observed agonist activity is due to activation of CB2Rs, an additional AC-inhibition assay was performed.

[9] = molecular target: T1, CB1Rs; test: Competition receptor binding with [3H]CP-55,940 in mouse brain homogenates; conditions: Table 3; read-out: mCB1R Ki
Procedure: as §1, §3, §2, §4

[10] = molecular target: T2, hCB2Rs; test: Inhibition of forskolin-stimulated cAMP production (adenylyl cyclase) in intact CHO-hCB2R cells; format: cell-based; conditions: for inhibition at 10 µM: CHO cell transfected with hCB2 receptors, read-out: AC-inhibition at CB2Rs; for inhibition of AC-activity at CB2Rs, concentration-effect: CHO-hCB2 cells
Procedure: Adenylyl cyclases are a family of membrane-bound enzymes that catalyze the intracellular production of the second messenger cAMP from ATP. Adenylyl cyclase activity is modulated by activated G-proteins: Gs-proteins stimulate activity, while Gi/o-proteins are inhibitory. Thus, agonists of G-protein coupled receptors (GPCRs) coupled to Gi/o-proteins, such as hCB2Rs, decrease cAMP production due to inhibition of adenylyl cyclase activity. In this assay, intact CHO-hCB2R cells are preincubated with [^3H]-adenine and treated with forskolin (10 or 30 μM) to stimulate adenylyl cyclase activity.
A functional assay screen for the inhibition of adenylate cyclase (AC) activity was chosen as the subsequent assay. […] Reaching full-receptor occupancy, which is predicted to produce maximal efficacy, is desirable at 10 μM concentration of all the compounds was used.

| Structure (SMILES) | [35S]GTPγS Binding, 100 nM ([1]; 100 nM) [pmol/mg] | [35S]GTPγS Binding, +O-2050 (1 μM) ([1]; 1 μM cannabinoid (100 nM for CP-55,940) co-incubated with CB1R antagonist O-2050 1 μM) [pmol/mg] | [35S]GTPγS Binding Emax ([1]; concentration-effect, mouse brain homogenates) | EC50 ([1]; concentration-effect, mouse brain homogenates, read-out: [35S]GTPγS Binding EC50) [nM] | Ki [2] [nM] | AC-inhibition at CB1Rs ([3]; 10 μM, Neuro2A cells) [%] | EtOH preference (10% EtOH, 2-bottle choice) [4] | body weight [4] | total fluid consumption [4] | EtOH conditioned place preference [5] | Ki [6] [nM] | effect on JWH-073-induced hypothermia [7] | AC-activity in CHO-WT cells not transfected with CB2Rs [8] | Ki [9] [nM] | inhibition at 10 µM [10] [%] | inhibition of AC-activity at CB2Rs, concentration-effect [10] | antagonism of AC-inhibition produced by the CB1R full agonist JWH-073 [3] | inhibition at 10 µM ([3]; 10 μM, Neuro2A cells) [%] | inhibition of AC-activity via CB1Rs, concentration-effect ([3]; Neuro2A cells) |
| --- | --- | --- | --- | --- | --- | --- | --- | --- | --- | --- | --- | --- | --- | --- | --- | --- | --- | --- | --- |
| CCCCCCC(C)(C)c1ccc(C2CC(O)CC[C@H]2CCCO)c(O)c1 (some centres unmarked) [CP-55,940] | 0.20 ± 0.04 | 0.06 ± 0.03 | 0.26 ± 0.01^a pmole/mg | 7.5 ± 1.8 | 0.26 ± 0.1 | 45 |  |  |  |  |  |  |  |  |  |  |  |  |  |
| Cc1c(C(=O)NN2CCCCC2)nn(-c2ccc(Cl)cc2Cl)c1-c1ccc(Cl)cc1 [rimonabant, 5-(4-Chlorophenyl)-1-(2,4-dichloro-phenyl)-4-methyl-N-(piperidin-1-yl)-1H-pyrazole-3-carboxamide, reference compound] |  |  |  |  |  |  | decreases EtOH preference | does indeed have an effect on body weight | without having any effect on total fluid intake | did not elicit a significant preference for the EtOH-paired chamber |  |  |  |  |  |  |  |  |  |
| CCCCn1cc(Cc2cccc3ccccc23)c2cccc(OC)c21 [TV-5-249, 1-butyl-7-methoxy-3-(naphthalen-1-ylmethyl)-1H-indole] |  |  |  |  |  |  | reduced EtOH preference | did not decrease body weight | without affecting total fluid consumption |  | 10.9 | significantly decreased the hypothermic effects of JWH-073 | neither TV-5-249 nor TV-6-41 significantly modify AC-activity | 15.4 ± 2.2 | 33.2 | 40-50% | antagonize AC inhibition | 18 | very little inhibition of AC-activity |
| CCCCn1cc(-c2ccc3ccccc3c2)c2cccc(OC)c21 [TV-6-41, 1-butyl-7-methoxy-3-(naphthalen-2-yl)-1H-indole] |  |  |  |  |  |  |  |  |  | conditioned rewarding effects of EtOH were blocked | 26.5 | significantly decreased the hypothermic effects of JWH-073 | neither TV-5-249 nor TV-6-41 significantly modify AC-activity | 37.3 ± 11.8 | 20.8 | 40-50% | antagonize AC inhibition | 16 | very little inhibition of AC-activity |
